# Assay: Serum phosphate in rats
# Format: in vivo, rat
# Settings: 50 mg/kg/day oral gavage, at 24 hour or 1 week of daily dosing
# Procedure: In the first experiment, Sprague Dawley rats (Charles River Labs; N=5/group) were dosed with vehicle, 10, 50 or 200 mg/kg/qwk of FGFR1-ECD.339-Fc for four weekly doses and plasma concentrations of FGFR1-ECD.339-Fc were determined throughout the study by an ELISA based detection method.
# In the second experiment, Sprague Dawley rats (Charles River Labs; N=5/group) were administered the FGFR kinase inhibitor PD173074 (Chemdea, Ridgewood, N.J.; 50 mg/kg/day) or vehicle control by oral gavage for 7 days; or were administered FGFR1-ECD.339-Fc (200 mg/kg) or appropriate vehicle weekly by intravenous administration. Blood samples were collected at the time points indicated and serum phosphate was determined at 24 and 168 hours post-initiation of dosing (Idexx laboratories, Westbrook, Mass.).
smiles,measurement,value
CCN(CC)CCCCNc1ncc2cc(-c3cc(OC)cc(OC)c3)c(NC(=O)NC(C)(C)C)nc2n1 [PD173043],plasma phosphate levels,significantly elevated
